Results on 30 molecules are retold here after patent publication US11571416B2, “Amodiaquine analogs and methods of uses thereof” (priority 2017, dated 2023).

The IC50 is the concentration at which inhibition is half-maximal. Usually CC50 stands for the concentration giving 50% cytotoxicity. High values mean better tolerance by the cells, low ones harm at low concentration. By half-life is commonly meant the time in which the quantity being followed falls by half.

The subject of data set [1] is EBOV-GFP (recombinant Ebolavirus encoding a GFP reporter gene). Put plainly: microbe, parasite or virus in culture. Format: cell-based. Particulars: for IC50: Orthoebolavirus.
A short description of data set [2]: Cytotoxicity, CellTiter-Glo Luminescent Cell Viability Assay. Particulars: human, Huh7 cells. (In general: Cellular ATP, detected with luciferase, serves as a proxy for viable cell number.)
A further data set deals with Huh7 cells. The description is as above. Particulars: Table 2, 24 h incubation.
The conditions of data set [3]: in humans, metabolite formed by CYP2C8; cited from earlier work.
The test system of the next data set is Ebolavirus. Particulars: cited from earlier work.

Take `CCN(Cc1cc(Nc2ccnc3cc(Cl)ccc23)ccc1O)C(C)C` [Compound 11, 4-(7-chloroquinolin-4-ylamino)-2-(ethylisopropylamino)methylphenol]: in data set [1], the Selectivity index was 41. In addition, the IC50 in data set [1] (Huh-7) is 1460 nM; in data set [1] (Huh-7, 24 h), 1460 ± 150 nM. In data set [2], this molecule yielded a CC50 at 24 h of 60500 nM.
On the same counts, the results for `CCCN(C)Cc1cc(Nc2ccnc3cc(Cl)ccc23)ccc1O` [Compound 14, 4-(7-chloroquinolin-4-ylamino)-2-(methylpropylamino)methylphenol] are over 82, 1220 nM, 1220 ± 110 nM and over 100000 nM.
Regarding `CN(Cc1cc(Nc2ccnc3cc(Cl)ccc23)ccc1O)C(C)(C)C` [Compound 15, 4-(7-chloroquinolin-4-ylamino)-2-(tert-butylmethylamino)methylphenol], the Selectivity index in data set [1] is 33. The half-maximal inhibitory concentration (IC50) came out at 1280 nM in data set [1] (Huh-7) and 1280 ± 70 nM in data set [1] (Huh-7, 24 h). Moreover, the midpoint of cytotoxicity in data set [2], the CC50 at 24 h, lay at 41800 nM.
For the molecule `CCN(CC)Cc1cc(Nc2ccnc3cc(I)ccc23)ccc1O` [Compound 18, 4-(7-iodoquinolin-4-ylamino)-2-diethylaminomethylphenol], in data set [1], the Selectivity index is reported as over 156 and the “fold potency relative to amodiaquine” value turned out to be 3.3 fold. The concentration for half-maximal inhibition (IC50) in data set [1] (Huh-7) amounted to 640 nM. In data set [1] (Huh-7, 24 h), the 50% inhibitory concentration (IC50) stood at 640 ± 50 nM. This molecule also came in with a CC50 at 24 h in data set [2] of over 100000 nM. For the same molecule, the CC50 in the data set on Huh7 cells is over 100000 nM.
For the molecule `CCN(CC)Cc1cc(Nc2ccnc3cc(Cl)ccc23)cc(-c2ccc(Cl)cc2)c1O` [Compound 20, 6-(4-chlorophenyl)-4-(7-chloroquinolin-4-ylamino)-2-diethylaminomethylphenol], in data set [1], the Selectivity index is 15 and the “fold potency relative to amodiaquine” value is 1.6 fold. For the same molecule, the concentration for half-maximal inhibition (IC50) in data set [1] (Huh-7) was determined as 1310 nM. Also, the IC50 in data set [1] (Huh-7, 24 h) was 1310 ± 100 nM. This molecule yielded a CC50 at 24 h in data set [2] of 19500 nM.
For the molecule `Oc1ccc(Nc2ccnc3cc(Cl)ccc23)cc1CN1CCCC1` [Compound 21, 4-(7-chloroquinolin-4-ylamino)-2-pyrrolidinylmethylphenol], in data set [1], the Selectivity index was determined as 30. Besides, the 50% inhibitory concentration (IC50) worked out at 1090 nM in data set [1] (Huh-7) and 1090 nM in data set [1] (Huh-7, 24 h). Besides, half-maximal cytotoxicity in data set [2] (CC50 at 24 h) was put at 33200 nM.
Take `CCCCCCNCc1cc(Nc2ccnc3cc(Cl)ccc23)ccc1O` [Compound 23, 4-(7-chloroquinolin-4-ylamino)-2-hexylaminomethylphenol]: in data set [1], the Selectivity index stood at 18. Further, the half-maximal inhibitory concentration (IC50) stood at 290 nM in data set [1] (Huh-7) and 290 ± 30 nM in data set [1] (Huh-7, 24 h). Besides, it took 5180 nM to reach half-maximal cytotoxicity in data set [2] (CC50 at 24 h).
On to `CCCCN(C)Cc1cc(Nc2ccnc3cc(Cl)ccc23)ccc1O` [Compound 25, 4-(7-chloroquinolin-4-ylamino)-2-(butylmethylamino)methylphenol], for which the Selectivity index in data set [1] is on record as 77. Further, the 50% inhibitory concentration (IC50) in data set [1] (Huh-7) was found to be 860 nM; in data set [1] (Huh-7, 24 h), 860 ± 80 nM. In data set [2], this molecule displayed a CC50 at 24 h of 65900 nM.
For `CCCN(CCC)Cc1cc(Nc2ccnc3cc(Cl)ccc23)ccc1O` [Compound 26, 4-(7-chloroquinolin-4-ylamino)-2-dipropylaminomethylphenol], the Selectivity index in data set [1] was over 106. The IC50 is 940 nM in data set [1] (Huh-7) and 940 ± 80 nM in data set [1] (Huh-7, 24 h). In data set [2], this molecule registered a CC50 at 24 h of over 100000 nM.
In the case of `CCCCN(CCCC)Cc1cc(Nc2ccnc3cc(Cl)ccc23)ccc1O` [Compound 28, 4-(7-chloroquinolin-4-ylamino)-2-dibutylaminomethylphenol], the Selectivity index in data set [1] is over 139. Besides, the IC50 in data set [1] (Huh-7) was found to be 720 nM; in data set [1] (Huh-7, 24 h), 720 ± 80 nM. In data set [2], this molecule came in with a CC50 at 24 h of over 100000 nM. This molecule registered a half-maximal cytotoxic concentration (CC50) in the data set on Huh7 cells of over 100000 nM.
`CCCN(CC)Cc1cc(Nc2ccnc3cc(Cl)ccc23)ccc1O` [Compound 29, 4-(7-chloroquinolin-4-ylamino)-2-(ethylpropylamino)methylphenol]: the Selectivity index in data set [1] is listed as over 72. Moreover, the half-inhibitory concentration (IC50) in data set [1] (Huh-7) is 1390 nM; in data set [1] (Huh-7, 24 h) it was 1390 ± 130 nM. Further, the CC50 at 24 h in data set [2] is over 100000 nM.
Consider `CN(C)Cc1cc(Nc2ccnc3cc(I)ccc23)ccc1O` [Compound 30, 4-(7-iodoquinolin-4-ylamino)-2-dimethylaminomethylphenol], for which the Selectivity index in data set [1] is reported as over 145. The IC50 in data set [1] (Huh-7) is 690 nM; in data set [1] (Huh-7, 24 h), 690 ± 80 nM. Moreover, the cytotoxic concentration (CC50) at 24 h in data set [2] is over 100000 nM.
Consider `CCN(C)Cc1cc(Nc2ccnc3cc(I)ccc23)ccc1O` [Compound 31, 4-(7-iodoquinolin-4-ylamino)-2-ethylmethylaminomethylphenol], for which the Selectivity index in data set [1] is on record as over 161. The IC50 in data set [1] (Huh-7) stood at 620 nM; in data set [1] (Huh-7, 24 h), 620 ± 60 nM. In data set [2], the CC50 at 24 h is over 100000 nM.
In the case of `CC(C)N(C)Cc1cc(Nc2ccnc3cc(I)ccc23)ccc1O` [Compound 32, 4-(7-iodoquinolin-4-ylamino)-2-isopropylmethylaminomethylphenol], the Selectivity index in data set [1] is recorded as 132. Moreover, the half-maximal inhibitory concentration (IC50) in data set [1] (Huh-7) amounted to 290 nM; in data set [1] (Huh-7, 24 h), 290 ± 40 nM. Also, the CC50 at 24 h in data set [2] came to 38400 nM.
As for `CN(Cc1cc(Nc2ccnc3cc(I)ccc23)ccc1O)C(C)(C)C` [Compound 33, 4-(7-iodoquinolin-4-ylamino)-2-tert-butylmethylaminomethylphenol], the Selectivity index in data set [1] was found to be 108. In addition, the concentration for half-maximal inhibition (IC50) was 300 nM in data set [1] (Huh-7) and 300 ± 40 nM in data set [1] (Huh-7, 24 h). The CC50 at 24 h in data set [2] worked out at 32300 nM.
Consider `CCCN(C)Cc1cc(Nc2ccnc3cc(I)ccc23)ccc1O` [Compound 34, 4-(7-iodoquinolin-4-ylamino)-2-methylpropylaminomethylphenol], for which the Selectivity index in data set [1] is listed as over 233. In addition, the 50% inhibitory concentration (IC50) was determined as 430 nM in data set [1] (Huh-7) and 430 ± 60 nM in data set [1] (Huh-7, 24 h). Further, the CC50 at 24 h in data set [2] was over 100000 nM.
On the same counts, the results for `CCCCN(C)Cc1cc(Nc2ccnc3cc(I)ccc23)ccc1O` [Compound 35, 4-(7-iodoquinolin-4-ylamino)-2-butylmethylaminomethylphenol] are 150, 440 nM, 440 ± 40 nM and 66100 nM.
For the molecule `CCCCCN(C)Cc1cc(Nc2ccnc3cc(I)ccc23)ccc1O` [Compound 36, 4-(7-iodoquinolin-4-ylamino)-2-methylpentylaminomethylphenol], the Selectivity index in data set [1] is over 270. In addition, the 50% inhibitory concentration (IC50) in data set [1] (Huh-7) came out at 370 nM; in data set [1] (Huh-7, 24 h) it was 370 ± 40 nM. Also, in data set [2], the CC50 at 24 h was over 100000 nM.
On the same counts, the results for `CCCCCCN(C)Cc1cc(Nc2ccnc3cc(I)ccc23)ccc1O` [Compound 37, 4-(7-iodoquinolin-4-ylamino)-2-hexylmethylaminomethylphenol] are over 256, 390 nM, 390 ± 20 nM and over 100000 nM.
For the molecule `CCCCCCCCN(C)Cc1cc(Nc2ccnc3cc(I)ccc23)ccc1O` [Compound 38, 4-(7-iodoquinolin-4-ylamino)-2-methyloctylaminomethylphenol], the Selectivity index in data set [1] is reported as over 385. In addition, the half-maximal inhibitory concentration (IC50) worked out at 260 nM in data set [1] (Huh-7) and 260 ± 60 nM in data set [1] (Huh-7, 24 h). Also, the CC50 at 24 h in data set [2] is over 100000 nM.
On the same counts, the results for `CCN(CCO)Cc1cc(Nc2ccnc3cc(I)ccc23)ccc1O` [Compound 39, 4-(7-iodoquinolin-4-ylamino)-2-ethyl(2-hydroxyethyl)aminomethylphenol] are over 244, 410 nM, 410 ± 50 nM and over 100000 nM.
In the case of `CCCN(CC)Cc1cc(Nc2ccnc3cc(I)ccc23)ccc1O` [Compound 40, 4-(7-iodoquinolin-4-ylamino)-2-ethylpropylaminomethylphenol], the Selectivity index in data set [1] is over 278. Further, the 50% inhibitory concentration (IC50) turned out to be 360 nM in data set [1] (Huh-7) and 360 ± 40 nM in data set [1] (Huh-7, 24 h). The molecule also returned a CC50 at 24 h in data set [2] of over 100000 nM.
`CCCCN(CC)Cc1cc(Nc2ccnc3cc(I)ccc23)ccc1O` [Compound 41, 4-(7-iodoquinolin-4-ylamino)-2-ethylbutylaminomethylphenol]: the Selectivity index in data set [1] stood at 147. Moreover, the IC50 is 410 nM in data set [1] (Huh-7) and 410 ± 40 nM in data set [1] (Huh-7, 24 h). In data set [2], this molecule gave a cytotoxic concentration (CC50) at 24 h of 60400 nM.
In the case of `Oc1ccc(Nc2ccnc3cc(I)ccc23)cc1CN1CCCC1` [Compound 42, 4-(7-iodoquinolin-4-ylamino)-2-(1-pyrrolidinylmethyl)phenol], in data set [1], the Selectivity index is on record as 54. Also, the 50% inhibitory concentration (IC50) came to 660 nM in data set [1] (Huh-7) and 660 ± 50 nM in data set [1] (Huh-7, 24 h). For the same molecule, the midpoint of cytotoxicity in data set [2], the CC50 at 24 h, lay at 35300 nM.
On the same counts, the results for `Oc1ccc(Nc2ccnc3cc(I)ccc23)cc1CN1CCCCC1` [Compound 43, 4-(7-iodoquinolin-4-ylamino)-2-(1-piperidinylmethyl)phenol] are over 270, 370 nM, 370 ± 70 nM and over 100000 nM.
On the same counts, the results for `Oc1ccc(Nc2ccnc3cc(I)ccc23)cc1CN1CCOCC1` [Compound 44, 4-(7-iodoquinolin-4-ylamino)-2-(4-morpholinylmethyl)phenol] are over 63, 1590 nM, 1590 ± 120 nM and over 100000 nM.
For the molecule `Oc1ccc(Nc2ccnc3cc(I)ccc23)cc1CN1CCSCC1` [Compound 45, 4-(7-iodoquinolin-4-ylamino)-2-(4-thiamorpholinylmethyl)phenol], the Selectivity index in data set [1] was over 51. Further, the IC50 in data set [1] (Huh-7) is 1950 nM; in data set [1] (Huh-7, 24 h), 1950 ± 220 nM. Further, in data set [2], the CC50 at 24 h was over 100000 nM.
In the case of `CCNCc1cc(Nc2ccnc3cc(Cl)ccc23)ccc1O` [desethyl-amodiaquine], in data set [3], the half-life is 220 to 432 h. Further, in the data set with Ebolavirus, the “anti-Ebolavirus activity (previous reports)” value (shortened to “anti-Ebolavirus activity”) is “potent anti-Ebolavirus activity”.
As for `COc1ccc2nc3cc(Cl)ccc3c(Nc3cc(CN4CCCC4)c(O)c(CN4CCCC4)c3)c2n1` [pyronaridine], the “anti-Ebolavirus activity” value in the data set on Ebolavirus was “anti-Ebolavirus activities”.
In the case of `CCN(CC)CCCC(C)Nc1c2ccc(Cl)cc2nc2ccc(OC)cc12` (centres unmarked) [quinacrine], in the data set on Ebolavirus, the “anti-Ebolavirus activity” value is “anti-Ebolavirus activities”.
